Consider 3 molecules from US10966426B2, “Herbicidal compositions comprising phenylpyrimidines” (BASF SE, priority 2016, dated 2021).

Format in all cases: in vivo
For one assay, the system named is Apera spica-venti. As to the kind of experiment: greenhouse pre-emergence treatment, APESV. The settings on record: Apera spica-venti, 480 h, 20 DAT, flumioxazin WG 51% solo 3.75 gai/ha. From the text:
(§1) The culture containers used were plastic pots containing loamy sand with approximately 3.0% of humus as substrate. The seeds of the test plants were sown separately for each species.
(§2) For the pre-emergence treatment, the active compounds, suspended or emulsified in water, were applied directly after sowing by means of finely distributing nozzles. The containers were irrigated gently to promote germination and growth and subsequently covered with transparent plastic hoods until the plants had rooted. This cover caused uniform germination of the test plants unless this was adversely affected by the active compounds.
(§3) Depending on the species, the plants were kept at 10-25° C. and 20-35° C., respectively.
(§4) The test period extended over 2 to 4 weeks. During this time, the plants were tended and their response to the individual treatments was evaluated.
(§5) Evaluation was carried out using a scale from 0 to 100. 100 means no emergence of the plants, or complete destruction of at least the above-ground parts, and 0 means no damage or normal course of growth. A good herbicidal activity is given at values of at least 70, and very good herbicidal activity is given at values of at least 85.
(§6) The respective stated components A and B, and if appropriate, C were formulated as a 10% by weight strength emulsion concentrate and, with addition of the amount of solvent system, introduced into the spray liquor used for applying the active compound. In the examples, the solvent used was water.
(§7) In the examples below, using the method of S. R. Colby (1967) “Calculating synergistic and antagonistic responses of herbicide combinations”, Weeds 15, p. 22ff., the value E, which is expected if the activity of the individual active compounds is only additive, was calculated. E=X+Y−(X·Y/100) where X=effect in percent using herbicide A at an application rate a; • Y=effect in percent using herbicide B at application rate b; • E=expected effect (in %) of herbicide A+herbicide B at application rates a+b.

The subject of a further assay is Polygonum convolvulus. Put plainly: greenhouse pre-emergence treatment, POLCO. The settings on record: POLCO.
Description: as §1, §2, §3, §4, §5, §6, §7

The test system of the next assay is Helianthus annuus. Put plainly: greenhouse pre-emergence treatment, HELAN. The settings on record: HELAN; for % activity: 21 DAT.
Description: as §1, §2, §3, §4, §5, §6, §7

The test system of assay [1] is Brachiaria decumbens. As to the kind of experiment: greenhouse pre-emergence treatment, BRADC. The conditions noted are these: Urochloa decumbens, 480 h, 20 DAT, BRADC, flumioxazin WG 51% solo 15 gai/ha.
Description: as §1, §2, §3, §4, §5, §6, §7

A further assay deals with Ambrosia elatior. Put plainly: greenhouse pre-emergence treatment, AMBEL. The settings on record: AMBEL; for % activity: 21 DAT.
Description: as §1, §2, §3, §4, §5, §6, §7

The subject of assay [2] is Galium aparine. Put plainly: greenhouse pre-emergence treatment, GALAP. The conditions noted are these: GALAP; for % activity: solo, WG 75%, 21 DAT.
Description: as §1, §2, §3, §4, §5, §6, §7

In a further assay the test system is Lolium multiflorum. Put plainly: greenhouse pre-emergence treatment, LOLMU. The conditions noted are these: Lolium multiflorum, 480 h, 20 DAT, LOLMU, flumioxazin WG 51% solo 30 gai/ha.
Description: as §1, §2, §3, §4, §5, §6, §7

For the next assay, the system named is Echinocloa crus-galli. As to the kind of experiment: greenhouse post-emergence treatment, ECHCG. The conditions noted are these: Table X12, 20 DAT, ECHCG, solo isoproturon (SC 500 g/l) 125 gai/ha. Here is the method: as §1
For the post-emergence treatment, the test plants were grown to a plant height of from 3 to 15 cm, depending on the plant habit, and only then treated with the active compounds which had been suspended or emulsified in water. To this end, the test plants were either sown directly, and grown in the same containers, or they were first grown separately as seedlings and transplanted into the test containers a few days prior to treatment.
as §3, §4, §5, §6, §7

In assay [3] the test system is Alopecurus myosuroides. As to the kind of experiment: greenhouse pre-emergence treatment, ALOMY. The settings on record: Table X13, 20 DAT, solo isoproturon (SC 500 g/l) 125 gai/ha.
Description: as §1, §2, §3, §4, §5, §6, §7

Assay [4] concerns Setaria viridis. As to the kind of experiment: greenhouse pre-emergence treatment, SETVI. The conditions noted are these: SETVI.
Description: as §1, §2, §3, §4, §5, §6, §7

The test system of assay [5] is Galium aparine. As to the kind of experiment: greenhouse post-emergence treatment, GALAP. The conditions noted are these: Galium aparine, 480 h, Table X12, 20 DAT, GALAP, solo isoproturon (SC 500 g/l) 500 gai/ha. The method in brief:
(§8)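 Visual herbicidal effect (0–100) recorded over a 2 to 4 week test period after foliar treatment at plant heights of 3 to 15 cm. Expected combination effects derived by the Colby formula from single-component effects X and Y.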

A further assay relates to Papaver rhoeas. Put plainly: greenhouse post-emergence treatment, PAPRH. The conditions noted are these: solo, WG 75%, PAPRH, 20 DAT. An outline of the steps:
as §8

A further assay concerns Poa annua. As to the kind of experiment: greenhouse post-emergence treatment, POAAN. The settings on record: solo, WG 75%, POAAN, 12.5 gai/ha, 20 DAT. An outline of the steps: (§9)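 Post-emergence greenhouse spray on 3–15 cm plants, sown direct or transplanted a few days before treatment. Scored visually on a 0–100 scale after 2 to 4 weeks; expected additive effect computed by Colby: E=X+Y−(X·Y/100).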

The subject of assay [6] is Brachiaria decumbens. Put plainly: greenhouse post-emergence treatment, BRADC. The settings on record: 20 DAT, BRADC. An outline of the steps:
as §9

The subject of a further assay is Matricaria chamomilla. Put plainly: greenhouse post-emergence treatment, MATCH. The conditions noted are these: solo, WG 75%, MATCH, 20 DAT. An outline of the steps:
as §8

The test system of the next assay is Stellaria media. As to the kind of experiment: greenhouse pre-emergence treatment, STEME. The settings on record: 21 DAT.
Description: as §1, §2, §3, §4, §5, §6, §7

Assay [7] concerns Digitaria sanguinalis. As to the kind of experiment: greenhouse pre-emergence treatment, DIGSA. The conditions noted are these: 21 DAT, DIGSA.
Description: as §1, §2, §3, §4, §5, §6, §7

The subject of assay [8] is Setaria viridis. As to the kind of experiment: greenhouse post-emergence treatment, SETVI. The settings on record: 20 DAT, SETVI. The method in brief: (§10)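 Greenhouse test in humus-containing (~3.0%) loamy sand at species-dependent temperatures of 10-25° C. or 20-35° C.; treatments applied in water. Damage rated visually after 2–4 weeks (0 = none, 100 = complete destruction or no emergence).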

The subject of assay [9] is Digitaria sanguinalis. Put plainly: greenhouse post-emergence treatment, DIGSA. The conditions noted are these: solo, WG 75%, DIGSA, 100 gai/ha, 20 DAT. The method in brief:
as §10

The subject of assay [10] is Bromus sterilis. As to the kind of experiment: greenhouse post-emergence treatment, BROST. The conditions noted are these: solo, WG 75%, BROST, 20 DAT. An outline of the steps: as §10
Assay [11] has as its system Alopecurus myosuroides. Put plainly: greenhouse post-emergence treatment, ALOMY. The conditions noted are these: solo, WG 75%, ALOMY, 50 gai/ha, 20 DAT. The method in brief: as §10
Assay [12] relates to Bromus sterilis. Put plainly: greenhouse pre-emergence treatment, BROST. The conditions noted are these: solo, WG 75%, BROST, 50 gai/ha, 21 DAT.
Description: as §1, §2, §3, §4, §5, §6, §7

Where [13] appears, read: solo, WG 75%, 50 gai/ha, 21 DAT.

Regarding `C#CCN1C(=O)COc2cc(F)c(N3C(=O)C4=C(CCCC4)C3=O)cc21` [flumioxazin], the inhibition at 3.75 g/ha with Apera spica-venti is 25%. For the same molecule, the inhibition at […] in the assay on Polygonum convolvulus (Fallopia convolvulus, 480 h, 20 DAT, flumioxazin WG 51% solo 7.5 gai/ha) is 65%. In addition, the inhibition at 30 g/ha in the assay on Helianthus annuus (Helianthus annuus, 480 h, 20 DAT, flumioxazin WG 51% solo 30 gai/ha) worked out at 50%; with Lolium multiflorum, 65%. In the assay on Brachiaria decumbens [1], the % herbicidal activity (weed control, 0-100 scale) at 15 g/ha stood at 40%. In the assay on Ambrosia elatior (Ambrosia artemisiifolia, 480 h, 20 DAT, flumioxazin WG 51% solo 3.75 gai/ha), the percent weed control (herbicidal activity, 0-100 scale) at 3.75 g/ha turned out to be 0%. Moreover, the percent weed control (herbicidal activity, 0-100 scale) at […] with Ambrosia elatior (Ambrosia artemisiifolia, 480 h, 20 DAT, flumioxazin WG 51% solo 7.5 gai/ha) came out at 0%. Further, in the assay with Galium aparine [2] (Galium aparine, 480 h, 20 DAT, flumioxazin WG 51% solo 7.5 gai/ha), the % herbicidal activity (weed control, 0-100 scale) at […] is 0%. In addition, the % herbicidal activity (weed control, 0-100 scale) at 30 g/ha with Galium aparine [2] (Galium aparine, 480 h, 20 DAT, flumioxazin WG 51% solo 30 gai/ha) turned out to be 65%.
For the molecule `CC(C)c1ccc(NC(=O)N(C)C)cc1` [isoproturon], the “% activity” value in the assay with Echinocloa crus-galli was 40%; in the assay on Alopecurus myosuroides [3], 0%; with Setaria viridis [4] (Table X13, 20 DAT, solo isoproturon (SC 500 g/l) 125 gai/ha), 0%; with Setaria viridis [4] (Table X13, 20 DAT, solo isoproturon (SC 500 g/l) 500 gai/ha), 75%. Moreover, in the assay on Galium aparine [5], the pest or weed control at 500000 µg/mL, 500 g/ha was determined as 30%.
Regarding `O=C(Nc1ccc(F)cc1)c1cccc(Oc2cccc(C(F)(F)F)c2)n1` [picolinafen], the “% activity” value amounted to 35% in the assay on Papaver rhoeas (12.5 gai/ha); 40% with Papaver rhoeas (25 gai/ha); 55% in the assay on Papaver rhoeas (50 gai/ha); 80% in the assay on Papaver rhoeas (100 gai/ha); 40% in the assay on Poa annua; 35% in the assay with Brachiaria decumbens [6] (picolinafen WG 75% solo 25 gai/ha). Also, the “% activity” value was 50% in the assay on Brachiaria decumbens [6] (picolinafen WG 75% solo 50 gai/ha); 35% with Brachiaria decumbens [6] (solo, WG 75%, 25 gai/ha); 50% with Brachiaria decumbens [6] (solo, WG 75%, 50 gai/ha); 70% in the assay with Setaria viridis [4] (picolinafen solo 25 gai/ha, 21 DAT); 80% in the assay on Setaria viridis [4] (picolinafen solo 50 gai/ha, 21 DAT); 85% in the assay with Setaria viridis [4] (picolinafen solo 100 gai/ha, 21 DAT). Besides, the “% activity” value in the assay on Setaria viridis [4] (picolinafen solo 250 gai/ha, 21 DAT) is given as 70%; in the assay on Setaria viridis [4] (solo, WG 75%, 12.5 gai/ha, 21 DAT) it was 45%; in the assay with Setaria viridis [4] (setting [13]), 80%; in the assay on Polygonum convolvulus (setting [13]), 20%; in the assay on Matricaria chamomilla (12.5 gai/ha) it was 0%; with Matricaria chamomilla (25 gai/ha), 20%. Besides, the “% activity” value in the assay on Matricaria chamomilla (50 gai/ha) is 20%; in the assay with Helianthus annuus (picolinafen solo 12.5 gai/ha), 10%; in the assay with Helianthus annuus (picolinafen solo 50 gai/ha), 15%; in the assay on Helianthus annuus (solo, WG 75%, 12.5 gai/ha) it was 10%; in the assay on Helianthus annuus (solo, WG 75%, 25 gai/ha), 20%; in the assay with Helianthus annuus (solo, WG 75%, 50 gai/ha) it was 15%. The “% activity” value in the assay with Ambrosia elatior (picolinafen solo 50 gai/ha) is listed as 0%; in the assay with Ambrosia elatior (solo, WG 75%, 12.5 gai/ha), 0%; in the assay with Ambrosia elatior (solo, WG 75%, 25 gai/ha), 0%; in the assay on Ambrosia elatior (solo, WG 75%, 50 gai/ha), 0%; in the assay with Stellaria media (picolinafen solo 25 gai/ha) it was 20%; in the assay on Stellaria media (picolinafen solo 50 gai/ha), 50%. In addition, the “% activity” value with Stellaria media (picolinafen solo 100 gai/ha) was 65%; with Galium aparine [2] (12.5 gai/ha), 0%; in the assay on Galium aparine [2] (25 gai/ha), 0%; in the assay on Digitaria sanguinalis [7] (picolinafen solo 12.5 gai/ha), 0%; with Digitaria sanguinalis [7] (solo, WG 75%, 25 gai/ha) it was 30%; with Digitaria sanguinalis [7] (solo, WG 75%, 50 gai/ha), 60%. The “% activity” value with Setaria viridis [8] (picolinafen WG 75% solo 12.5 gai/ha) came out at 30%; in the assay with Setaria viridis [8] (solo, WG 75%, 12.5 gai/ha) it was 30%; with Setaria viridis [8] (solo, WG 75%, 50 gai/ha), 80%; with Digitaria sanguinalis [9], 75%; in the assay on Bromus sterilis [10] (12.5 gai/ha), 0%; in the assay on Bromus sterilis [10] (25 gai/ha), 0%. Also, the “% activity” value is reported as 10% in the assay with Bromus sterilis [10] (50 gai/ha), 20% in the assay with Bromus sterilis [10] (100 gai/ha), 10% with Alopecurus myosuroides [11] and 20% in the assay on Bromus sterilis [12].
